Assay [1] deals with SAOS-2 osteosarcoma cells. Kind of assay: in vitro cell adhesion to fibronectin coated plates, crystal violet staining. It counts as cell-based. To be noted: SAOS-2, 10 μM Histatin-1, fibronectin 2 μg/ml, 5-60 min, serum-free medium. The protocol:
(§1) For this, (A) SAOS 2 cells were collected, resuspended in serum-free medium either containing or not 10 μM Histatin-1, and incubated for 30 min. Cells were then allowed to attach to fibronectin coated plates (2 μg/ml) for 5, 10, 15, 30, 45 and 60 min in serum-free medium, containing or not 10 μM Histatin-1. Cell adhesion was detected by crystal violet staining and counting under an optic microscope. Representative images are shown for each time point, in the absence or presence of Histatin 1. […] (B, C and D) Cell migration was measured in Transwell chambers coated with 2 μg/ml fibronectin. Briefly, SAOS 2 (B), MC3T3 E1 cells (C) and APMCs (apical papilla mesenchymal cells, D) were allowed to migrate for 60 min in Transwell chambers, in the presence of 10 μM Histatin 1 or 10 μM of non-phosphorylated Histatin 1 (no P), 10 μM of a scramble sequence or vehicle control (H2O). Cells that migrated were visualized by crystal violet staining. Representative images are shown, and graphs represent the averages of 3 independent experiments (mean±s.e.m; *p<0.05; **p<0.01).

The subject of a further assay is MC3T3-E1 pre-osteoblasts. Kind of assay: Transwell cell migration assay. Format: cell-based. As to conditions: MC3T3-E1, 10 μM, 60 min, Transwell coated with 2 μg/ml fibronectin. How it is done: as §1
Assay [2] deals with SAOS-2 osteosarcoma cells. Nature of the assay: Transwell cell migration assay. It counts as cell-based. To be noted: SAOS-2, 10 μM, 60 min, Transwell coated with 2 μg/ml fibronectin. The protocol: as §1
For assay [3], the system named is apical papilla mesenchymal cells, APMCs. Kind of assay: Transwell cell migration assay. Format: cell-based. To be noted: 10 μM, 60 min, Transwell coated with 2 μg/ml fibronectin. The protocol: as §1
Another assay has as its system MC3T3-E1 preosteoblasts. Kind of assay: in vitro mineralization test (alizarin red). Format: cell-based. As to conditions: MC3T3-E1, 10 μM, 7 days. The protocol:
(§2) The ability of Histatin-1 to stimulate the formation of calcium deposits was determined by the alizarin red staining test. For this, SAOS-2 cells, MC3T3-E1 preosteoblasts, stem cells from the apical papilla or dental pulp stem cells were grown in complete medium supplemented with bovine serum, in the absence or presence 10 μM Histatin-1 for 7 days. […] Cells were washed with PBS, fixed with 4% paraformaldehyde, and stained with Alizarin Red aqueous solution for 1 h. Finally, samples were washed with distilled water and subsequently with PBS. Calcium deposits were visualized in an optic microscope. Representative images are shown, and graphs represent the quantification of the amount of calcium deposits. Values are shown as the mean±s.e.m (*p<0.01; ***p<0.001).

For another assay, the system named is SAOS-2 cells. Kind of assay: in vitro mineralization test (alizarin red). Format: cell-based. To be noted: SAOS-2, 10 μM, 7 days. How it is done:
as §2

Assay [4] deals with dental pulp mesenchymal cells. Kind of assay: in vitro mineralization test (alizarin red). It counts as cell-based. As to conditions: dental pulp mesenchymal (stem) cells, 10 μM, 7 days. How it is done:
as §2
(§3) The same procedure was performed on stem cells of the apical papilla and dental pulp.

The subject of assay [5] is stem cells from the apical papilla (APMCs). Nature of the assay: in vitro mineralization test (alizarin red). Format: cell-based. As to conditions: 10 μM, 7 days. How it is done:
as §2, §3

Assay [6] has as its system Alkaline Phosphatase (ALP) in MC3T3-E1 cells. Kind of assay: Western blot of alkaline phosphatase in whole cell lysates. It counts as cell-based. As to conditions: MC3T3-E1, 10 μM, 24 h. The protocol: (§4) In (A) SAOS-2 and (B) MC3T3-E1 cells were incubated in the absence or presence of 10 μM Histatin-1 for 24 h, and whole cell lysates were analyzed by Western blotting of ALP. […] In (C) SAOS-2 cells were treated or not with 10 μM Histatin-1 for 24 and 48 h, and the activity of alkaline phosphatase (ALP) was measured by metabolization of the substrate p-nitrophenyl phosphate, following absorbance at 405 nm.
(§5) By Western blot assay, the effect of Histatin-1 on the expression of two proteins involved in the osteogenesis process (alkaline phosphatase, β-catenin) was evaluated. For this, SAOS-2 or MC3T3-E1 cells were seeded on 60 mm plates, grown in complete medium supplemented with bovine serum for 24 h, washed with PBS and then incubated for 24 h with either serum-free medium or serum-free medium containing 10 μM Histatin-1. […] Bound first antibodies were detected with HRP-conjugated second antibodies and detected with the EZ-ECL system.
(§6) Representative Western blot images are shown, and relative levels of ALP were quantified by scanning densitometry and normalized to actin. […] (C) SAOS 2 cells were treated or not with 10 μM Histatin 1 for 24 and 48 h, and the activity of alkaline phosphatase (ALP) was measured by metabolization of the substrate p-nitrophenyl phosphate, following absorbance at 405 nm. […]
A general note: Immunoblotting shows a protein as a band on a membrane.

Assay [7] concerns Alkaline Phosphatase (ALP) in SAOS-2 cells. Described as above. It counts as cell-based. To be noted: SAOS-2, 10 μM, 24 h. How it is done:
as §4, §5, §6

For assay [8] the test system is unchanged. Nature of the assay: alkaline phosphatase activity, p-nitrophenyl phosphate, absorbance at 405 nm. It counts as cell-based. To be noted: SAOS-2, 10 μM, 24 and 48 h. The protocol:
as §4
Representative Western blot images are shown, and relative levels of ALP were quantified by scanning densitometry and normalized to actin. Graphs represent the average from 3 independent experiments (mean±s.e.m.; *p<0.05). (C) SAOS 2 cells were treated or not with 10 μM Histatin 1 for 24 and 48 h, and the activity of alkaline phosphatase (ALP) was measured by metabolization of the substrate p-nitrophenyl phosphate, following absorbance at 405 nm. Data were averaged from 3 independent experiments and shown as residual activity (% increase with respect to the control condition; mean±s.e.m; *p<0.05).

Assay [9] relates to β-catenin in SAOS-2 cells. Nature of the assay: Western blot of β-catenin in whole cell lysates. It counts as cell-based. As to conditions: SAOS-2, 10 μM, 24 h. How it is done:
(§7) In (A) SAOS-2 cells were incubated in the absence or presence of 10 μM Histatin-1 for 24 h, and whole cell lysates were prepared for Western blot analysis of β-catenin. […] In (B) SAOS-2 cells were incubated with Histatin-1 for 24 hours. Cells were then fixed, permeabilized and incubated with primary and secondary antibodies for subsequent immunofluorescence analysis of total and non-phosphorylated (transcriptionally active) β-catenin.
as §5
Representative Western blot images are shown, and relative levels of β catenin were quantified by scanning densitometry and normalized to actin. […] (B) SAOS 2 cells were treated or not with 10 μM Histatin 1 for 24 h, then fixed, permeabilized and analyzed incubated with primary and secondary antibodies for subsequent immunofluorescence analysis of total and non-phosphorylated (transcriptionally active) β-catenin. […]

Assay [10] relates to β-catenin in SAOS-2 cells. Nature of the assay: immunofluorescence of total and non-phosphorylated β-catenin nuclear localization. Format: cell-based. To be noted: SAOS-2, 10 μM, 24 h. How it is done:
as §7
Representative Western blot images are shown, and relative levels of β catenin were quantified by scanning densitometry and normalized to actin. Graphs represent the average from 3 independent experiments (mean±s.e.m.; *p<0.05). (B) SAOS 2 cells were treated or not with 10 μM Histatin 1 for 24 h, then fixed, permeabilized and analyzed incubated with primary and secondary antibodies for subsequent immunofluorescence analysis of total and non-phosphorylated (transcriptionally active) β-catenin. Left panels show representative confocal microscopy images of total and active β-catenin, whereas nuclei staining with DAPI was used as reference. […]
Alternatively, SAOS-2 cells grown on coverslips were fixed, permeabilized and analyzed for total and active β-catenin nuclear localization.

For assay [11], the system named is Runx2, osteocalcin, osteopontin and ALP mRNA in APMCs. Kind of assay: RT qPCR of osteoblastic differentiation markers. Format: cell-based. To be noted: 10 μM, 7 days. How it is done: (§8) (A) MC3T3-E1 and (B) AMPCs cells were treated or not with 10 μM Histatin-1 for 7 days. Total RNA was extracted, for subsequent RT qPCR analysis of Runx2, osteocalcin, osteopontin and ALP.
(§9) To evaluate the differentiation towards bone lineage in the presence of Histatin-1, the expression of the osteocalcin, osteopontin, Runx2 and ALP gene were determined, as markers of differentiation, by means of a qPCR assay for mRNA content analysis. For this, osteoblasts-like cells and stem cells from the apical papilla were grown in complete medium supplemented with bovine serum, in the absence or presence of 10 μM Histatin-1 for 24 h. Total RNA was extracted with TRIZOL (Invitrogen, Life Technologies), following the manufacturer's instructions. For cDNA synthesis, samples were treated with RNase-Free DNase kit (#M6101 Promega), quantified and purity was verified for subsequent reverse transcription, using the cDNA Reverse Transcription Kit (Applied Biosystems). Alkaline phosphatase, osteocalcin, osteopontin, Runx2 and GAPDH were quantified by qRT-PCR (Applied Biosystems, ΔΔCt method).
(§10) Total RNA was extracted, for subsequent RT qPCR analysis of Runx2, osteocalcin, osteopontin and ALP. Relative abundance of all screened mRNAs was normalized to GAPDH, by using the ΔΔCT method. Graphs show data obtained by averaging 3 independent experiments (mean±s.e.m.; *p<0.05; **p<0.01).

For assay [12], the system named is Runx2, osteocalcin, osteopontin and ALP mRNA in MC3T3-E1 cells. Nature of the assay: RT qPCR of osteoblastic differentiation markers. It counts as cell-based. As to conditions: MC3T3-E1, 10 μM, 7 days. The protocol:
as §8, §9, §10
In general terms: Quantitative PCR measures a nucleic acid by following its amplification.

The test system of a further assay is osteoblastic cells. As to conditions: zoledronic acid challenge; cited from earlier work.
A further assay relates to endothelial cells. To be noted: in vitro; cited from earlier work.
In a further assay the test system is angiogenesis. As to conditions: in vivo; cited from earlier work.

“Also recorded” adds a separate entry of the source.

Take “Histatin-1: human salivary peptide of 38 amino acids, obtained by chemical synthesis, with the sequence SEQ ID NO. 1 (DSHEKRHHGYRRKFHEKHHSHREFPFYGDYGSNYLYDN; listed as Homo sapiens)”: in assay [1], the cell adhesion entry is “favors both cell adhesion and migration”. For the same substance, the cell migration entry is “favors both cell adhesion and migration” in the assay with MC3T3-E1 pre-osteoblasts; “favors both cell adhesion and migration” in assay [2]; “favors both cell adhesion and migration” in assay [3]. The “calcium deposits / crystal nucleation sites (alizarin red)” value was “increases the number of crystal nucleation sites; also recorded: increased staining of the culture with Alizarin Red” in the assay with MC3T3-E1 preosteoblasts, “increases the number of crystal nucleation sites; also recorded: increased staining of the culture with Alizarin Red” in the assay on SAOS-2 cells, “increases the number of crystal nucleation sites; also recorded: stimulated the formation of calcium deposits” in [4] and “increases the number of crystal nucleation sites; also recorded: stimulated the formation of calcium deposits” in assay [5]. The “protein levels of ALP (Western blot, normalized to actin)” value in [6] is reported as “increases the protein levels of ALP”; in assay [7], “increases the protein levels of ALP; also recorded: increased the production of this enzyme”. In addition, in assay [8], the “activity of alkaline phosphatase (ALP)” value is “increases the activity of ALP”. For the same substance, in assay [9], the “protein levels of β-catenin (Western blot, normalized to actin)” value is recorded as “increases the protein levels of β-catenin; also recorded: increases the expression of the protein”. Besides, in assay [10], the “nuclear localization of active (non-phosphorylated) β-catenin” value was “increases the nuclear localization of total and active β-catenin”. The “nuclear localization of total β-catenin” value in assay [10] is “increases the nuclear localization of total and active β-catenin”. The “mRNA of osteoblastic differentiation markers (Runx2, osteocalcin, osteopontin, ALP), normalized to GAPDH” value in [11] and in [12] was “increases the mRNA of different osteoblastic differentiation markers; also recorded: induces an increase in the relative abundance of mRNA” each time. Further, the “cell migration in cells challenged with zoledronic acid” value in the assay on osteoblastic cells is “restored both cell migration and viability”. For the same substance, in the assay on osteoblastic cells, the “cell viability in cells challenged with zoledronic acid” value was “restored both cell migration and viability”. The endothelial cell migration result in the assay on endothelial cells was “stimulating endothelial cell migration”. Besides, the “formation of endothelial structures” value with endothelial cells was “formation of endothelial structures in vitro”. In addition, in the assay on angiogenesis, the angiogenesis entry is “angiogenesis in vivo”.

The record behind these values is patent US20230010110A1, “HISTATIN-1 FORMULATION FOR THE TREATMENT, REPAIR OR REGENERATION OF BONE TISSUE IN A SUBJECT” (UNIVERSIDAD DE CHILE, priority 2019, published 2023).
